Reference: patent US20220175777A1, “Inhibitors of Multidrug Resistance Transporter P-Glycoprotein” (Southern Methodist University, priority 2014, published 2022)

Columns and labels:
DU145TXR [1] = experiment: Potentiation of 500 nM paclitaxel cytotoxicity (MTT); assay type: cell-based, human; conditions: 50 nM-25 μM inhibitor with 500 nM paclitaxel
Description: FIGS. 4A and 4B show the in silico identified P-gp inhibitors potentiate the cytotoxic effects of paclitaxel in the MDR human prostate cancer cell line DU145TxR. […] Values represent the mean±SEM of at least two separate experiments performed in triplicate.
A range of experimental inhibitor concentrations was added in the presence of 500 nM paclitaxel and the cell viability was assessed using the MTT assay.
In order to compare the efficacy of inhibitors, the potentiation concentration of inhibitor resulting in 50% reduction in cell viability, PC50, in the presence of 500 nM paclitaxel was calculated from the data in FIG. 4A.

DU145TXR [2] = experiment: Dose dependent sensitization of MDR cell line to paclitaxel (MTT); assay type: cell-based, human; conditions: 5 μM and 10 μM compound
Description: FIGS. 6A to 6C show the dose dependent sensitization of MDR prostate cancer cell line DU145TxR. […] For reference, the DU145TxR (closed circle) and DU145 (open circle) incubated with paclitaxel only are also included. Values are mean±SEM from at least 2 separate experiments performed in triplicate wells. The data were normalized to the intrinsic toxicities as determined in studies from FIGS. 5A to 5C of each of the compounds for each of the corresponding concentrations.
Dose Dependent Sensitization of MDR Prostate Cancer Cell Line: To determine the degree to which the MDR prostate cancer cell line DU145TxR could be sensitized to paclitaxel the inventors determined cell survival at increasing concentrations of paclitaxel in the presence of three concentrations of P-gp inhibitors. FIGS. 6A, 6B and 6C show the survival of DU145TxR at increasing concentration of paclitaxel in the presence of 5 μM, 10 μM and 25 μM of the experimental compounds, respectively. The open circles represent the parental DU145 cell line in the presence of paclitaxel without addition of any inhibitor compound. The closed circles represent the survival of the multidrug resistant DU145TxR in the presence of paclitaxel alone. […] At that concentration over 10-fold increase in paclitaxel sensitivity in DU145TxR is observed compared to DU145TxR without P-gp inhibitors. Doubling the concentration of the compounds to 10 μM approximately doubled the DU145TxR sensitivity to paclitaxel.

[3] = molecular target: T1, Cysteineless Mouse MDR3 P-glycoprotein (Mus musculus, UniProt P21447, C1070A/C1121A/C1223A/C133A/C427A/C638A/C669A/C713A/C952A); conditions: ESR data of Brewer et al. (2014); cited from earlier work
T1 construct: made in house; host or cells: Pichia pastoris
T1 sequence (P21447 whole entry C133A/C427A/C638A/C669A/C713A/C952A/C1070A/C1121A/C1223A): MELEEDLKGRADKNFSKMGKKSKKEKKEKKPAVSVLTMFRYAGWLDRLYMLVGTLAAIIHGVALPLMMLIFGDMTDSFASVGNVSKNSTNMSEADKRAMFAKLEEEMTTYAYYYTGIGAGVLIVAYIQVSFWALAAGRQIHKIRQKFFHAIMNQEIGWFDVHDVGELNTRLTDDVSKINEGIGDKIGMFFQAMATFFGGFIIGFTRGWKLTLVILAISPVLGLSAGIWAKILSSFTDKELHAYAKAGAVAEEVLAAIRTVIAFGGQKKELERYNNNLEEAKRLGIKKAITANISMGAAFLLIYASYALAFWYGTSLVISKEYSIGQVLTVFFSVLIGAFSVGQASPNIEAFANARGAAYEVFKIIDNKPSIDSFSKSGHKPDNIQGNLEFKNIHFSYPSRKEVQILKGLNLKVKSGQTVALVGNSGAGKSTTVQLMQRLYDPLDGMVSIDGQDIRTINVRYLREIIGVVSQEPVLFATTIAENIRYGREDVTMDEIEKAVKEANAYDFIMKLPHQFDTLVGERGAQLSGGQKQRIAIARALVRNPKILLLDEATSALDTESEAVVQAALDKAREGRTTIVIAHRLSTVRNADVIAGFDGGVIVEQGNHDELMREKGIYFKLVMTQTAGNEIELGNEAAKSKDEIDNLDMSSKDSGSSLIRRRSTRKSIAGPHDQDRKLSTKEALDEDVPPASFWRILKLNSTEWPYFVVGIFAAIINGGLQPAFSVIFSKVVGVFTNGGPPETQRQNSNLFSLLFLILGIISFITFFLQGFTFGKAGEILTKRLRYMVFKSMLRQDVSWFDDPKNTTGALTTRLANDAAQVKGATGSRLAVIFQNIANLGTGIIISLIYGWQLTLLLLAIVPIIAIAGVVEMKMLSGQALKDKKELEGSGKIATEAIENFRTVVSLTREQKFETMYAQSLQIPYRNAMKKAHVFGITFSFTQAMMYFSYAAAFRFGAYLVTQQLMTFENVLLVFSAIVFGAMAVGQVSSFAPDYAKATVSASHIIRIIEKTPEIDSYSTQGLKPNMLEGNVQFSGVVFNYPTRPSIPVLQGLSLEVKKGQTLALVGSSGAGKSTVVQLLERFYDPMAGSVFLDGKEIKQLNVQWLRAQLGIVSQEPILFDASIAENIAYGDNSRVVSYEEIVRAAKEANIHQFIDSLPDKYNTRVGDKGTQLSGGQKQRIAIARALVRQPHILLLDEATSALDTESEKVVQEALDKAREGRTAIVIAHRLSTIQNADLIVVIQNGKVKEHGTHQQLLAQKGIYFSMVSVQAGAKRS

DU145TXR [4] = experiment: Resensitization of DU145TXR to paclitaxel by 29 variants (MTT cell viability); assay type: cell-based, human; conditions: for Fold vs PTX ÷ 29: compared to parental compound 29
From the text: The Group 1 ChemGen/docking routine produced variants of P-gp inhibitor 29 resensitize a multidrug resistant, P-gp overexpressing prostate cancer cell line to paclitaxel. The mitochondrial reduction potential of cells is often used as an indicator for cell viability using MTT assays^40-42. Using these assays it was observed that the five Group 1 derivatives of 29 predicted through the ChemGen/docking routine and synthesized here, 216, 227, 231, 541 and 551, re-sensitized the P-gp overexpressing prostate cancer cell line, DU145TXR^33, to the chemotherapeutic, paclitaxel (FIG. 9, showing results of assays at concentrations of 3 μM, 5 μM, 7 μM, and 10 μM).
Cytotoxicity of the chemotherapeutic, paclitaxel (PTX) to P-gp overexpressing prostate cancer cells, DU145TXR, was determined in the absence and presence of the ChemGen designed 29-variants, 216, 227, 231, 541 and 551. For each experimental compound IC50 values of PTX alone or in the presence of inhibitors, fold improvement of PTX sensitivity in the presence of inhibitor, and fold improvement of PTX sensitivity by variants compared to parental compound 29 are given.

[5] = molecular target: T1, Cysteineless Mouse MDR3 P-glycoprotein; experiment: ATP hydrolysis by purified P-glycoprotein, basal and verapamil-stimulated; assay type: biochemical; conditions: ± standard deviation
From the text: The efficacy of molecules identified using in silico methods to function as potential inhibitors of P-glycoprotein was initially tested with regard to their capability to inhibit ATP hydrolysis by purified P-glycoprotein. For this purpose, a well-established activity assay for ATP hydrolyzing enzymes that uses the oxidation of NADH to NAD+ through coupling the reactions of pyruvate kinase and lactate dehydrogenase to the hydrolysis of ATP was adapted to medium throughput conditions on 96 well plates. […] In this set-up, the effects of potential small molecule inhibitors on the ATP hydrolysis activity of P-glycoprotein were tested in duplicate or triplicate and were repeated at least two times using different enzyme preparations.
The P-glycoprotein used in these assays was a close relative of the human P-glycoprotein that is found in mice. A mutant version of the mouse P-glycoprotein where all intrinsic cysteine amino acids had been replaced by alanine residues was recombinantly expressed in the yeast Pichia pastoris and used for these initial tests. […] Prior to testing the ATP-hydrolysis activity, P-glycoprotein was incubated with phosphatidyl choline for stabilization of the enzyme during the assay.
Different concentrations of the to-be-tested small molecules were added and pre-incubated at 37° C. The ATP hydrolysis reaction was then started by adding equal volume of double concentrated ATPase cocktail. The final ATP concentration in the reaction was 2 mM. The reaction was allowed to proceed for 20 minutes, the rate of ATP hydrolysis was calculated using the molar extinction coefficient of NADH, and the one-to-one relationship of ATP hydrolyzed and NADH oxidized.
Evaluation of mode of inhibition of P-glycoprotein by Group 1 and Group 2 variants of compound 29. To assess the mode of inhibition of P-gp by the novel variants of P-gp inhibitor 29, ATP hydrolysis by P-gp was evaluated in the presence or absence of the variants. […] Murine P-gp (MDR3) expressed in Pichia pastoris that had all naturally occurring cysteines replaced with alanine, was used^45, 46. It is widely assumed that the ATP hydrolytic rate of P-gp is stimulated in the presence of transport substrates when compared to ATP hydrolysis in the absence of transport substrates. Assays comparing these rates can therefore be useful not only in identifying inhibitors of P-gp catalyzed ATP hydrolysis, but also to potentially infer whether a compound might be a transport substrate if basal ATPase rates are stimulated by the addition of a compound.

[6] = molecular target: T1, Cysteineless Mouse MDR3 P-glycoprotein; experiment: SL-ATP binding to P-gp by ESR spectroscopy; conditions: SL-ATP titration in presence of compound
From the text: Determination of the possible mode of ATP hydrolysis inhibition by the identified P-glycoprotein inhibitors. The mode of hydrolysis of ATP by P-glycoprotein was investigated by measuring the maximal binding stoichiometry and binding affinity of an analog of ATP, SL-ATP, and by Electron Spin Resonance (ESR) spectroscopy, similar to in both the presence and absence of the identified inhibitors.
The high-field signal of the freely mobile, unbound SL-ATP is compared and is used to calculate the amount of ATP-analog bound to P-glycoprotein. Binding of SL-ATP in the absence of any P-glycoprotein inhibitor saturated at about 2 mol of SL-nucleotide bounds per mol of P-glycoprotein.
FIGS. 2A-2D are plots showing the effects of P-glycoprotein ATP hydrolysis inhibitors on nucleotide binding. Between 30 and 50 microM Pgp were incubated with 50 microM inhibitor compound. Increasing amounts of SL-ATP were added. The ESR signal of the free SL-ATP in the presence of P-glycoprotein and inhibitor was compared to that in the absence of P-glycoprotein. The graphs represent at least 3 individual studies each using 3 to 5 different P-glycoprotein preparations.

[7] = molecular target: Normal Human MDR1 P-glycoprotein (Homo sapiens, UniProt P08183); experiment: ATP hydrolysis by human P-gp assembled into membrane nanodiscs; assay type: biochemical; conditions: human MDR1 P-gp in nanodiscs
Normal Human MDR1 P-glycoprotein, sequence (P08183 whole entry): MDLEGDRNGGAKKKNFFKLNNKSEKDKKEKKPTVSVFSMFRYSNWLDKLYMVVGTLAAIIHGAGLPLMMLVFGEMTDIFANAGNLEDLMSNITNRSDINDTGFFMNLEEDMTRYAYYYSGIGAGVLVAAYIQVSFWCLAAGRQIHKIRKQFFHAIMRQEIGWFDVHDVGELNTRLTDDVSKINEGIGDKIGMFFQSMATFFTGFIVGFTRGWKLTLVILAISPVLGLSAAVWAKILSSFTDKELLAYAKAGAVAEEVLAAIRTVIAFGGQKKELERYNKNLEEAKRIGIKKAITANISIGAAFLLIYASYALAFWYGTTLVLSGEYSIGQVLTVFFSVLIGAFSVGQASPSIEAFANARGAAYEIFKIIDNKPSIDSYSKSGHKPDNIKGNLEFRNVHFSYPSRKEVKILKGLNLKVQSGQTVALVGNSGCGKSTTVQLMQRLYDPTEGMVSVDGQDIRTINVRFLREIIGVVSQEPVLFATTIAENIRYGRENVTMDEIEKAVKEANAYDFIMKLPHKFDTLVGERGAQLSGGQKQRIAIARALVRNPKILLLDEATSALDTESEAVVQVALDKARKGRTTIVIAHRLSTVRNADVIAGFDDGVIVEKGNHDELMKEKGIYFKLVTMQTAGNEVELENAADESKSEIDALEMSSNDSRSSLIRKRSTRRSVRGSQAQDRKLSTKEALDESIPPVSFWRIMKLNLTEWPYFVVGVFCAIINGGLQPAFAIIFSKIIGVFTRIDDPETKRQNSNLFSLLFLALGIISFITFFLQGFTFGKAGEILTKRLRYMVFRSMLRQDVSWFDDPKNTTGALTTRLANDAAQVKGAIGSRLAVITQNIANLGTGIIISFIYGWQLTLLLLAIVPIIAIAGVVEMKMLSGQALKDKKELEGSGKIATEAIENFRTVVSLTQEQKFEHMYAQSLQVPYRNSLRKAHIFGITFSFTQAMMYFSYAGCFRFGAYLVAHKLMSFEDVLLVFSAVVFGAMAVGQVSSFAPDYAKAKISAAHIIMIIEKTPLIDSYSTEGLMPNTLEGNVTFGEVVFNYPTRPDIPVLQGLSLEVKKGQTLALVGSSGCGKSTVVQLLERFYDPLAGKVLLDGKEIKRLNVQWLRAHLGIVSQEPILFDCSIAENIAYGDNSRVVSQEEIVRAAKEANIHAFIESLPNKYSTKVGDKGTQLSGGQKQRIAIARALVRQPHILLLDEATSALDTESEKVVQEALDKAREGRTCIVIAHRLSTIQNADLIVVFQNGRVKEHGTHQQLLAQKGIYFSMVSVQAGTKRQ
From the text: To assess whether the observed discrepancies of compounds stimulating basal P-gp ATPase activity but not being transport substrates of the human pump in the cell culture assessments were due to the fact that these biochemical assays used a cysteineless variant of the mouse MDR3 P-glycoprotein, the experiments were repeated using normal human MDR1 P-gp. In order to stabilize the human protein for the activity assays, the protein was assembled into membrane nanodiscs as described herein.

DU145TXR [8] = experiment: Intrinsic toxicity, MTT survival; assay type: cell-based, human
Description: (§1) Percent survival determined by MTT assay calculated relative to cells treated with equal volume DMSO vehicle and represent the mean±SEM from 2-4 separate studies, each study performed in triplicate wells.
(§2) The intrinsic in vitro toxicities of identified compounds were evaluated to determine their potential therapeutic window. This was assessed in a noncancerous cell line (HFL1) and the human prostate cancer cell lines DU145 and the MDR sub-line DU145TxR.

[9] = tested on: P-gp overexpressing DU145TXR cells; experiment: Calcein AM accumulation assay; assay type: cell-based, human
Description: Accumulation and cellular retention of calcein AM in P-gp overexpressing prostate cancer cells upon incubation with Group 1 SMU-29 variants. Calcein AM accumulation assays have been used by us previously to evaluate P-gp-substrate accumulation in real time in the presence or absence of P-gp inhibitors^28. For these assays, P-gp overexpressing DU145TXR cells were incubated with the respective inhibitors in the presence of the P-gp substrate, calcein AM. Inhibition of P-gp leads to cellular accumulation of calcein AM and to cleavage of its acetoxymethyl ester groups, resulting in the generation of the highly fluorescent compound, calcein. The anionic calcein is not a substrate of P-gp and remains in the cells. In these assays, the relative fluorescence of cellular calcein was measured over time and the results of these assays are shown in FIG. 10A.
The inventors determined if preferential partitioning of variants in the hydrophobic part of the cell membrane may keep them more distant from the putative allosteric site on P-gp which is located adjacent to the membrane in the cytoplasm, therefore potentially slowing the inhibitory effect of the compounds.

DU145 = experiment: Intrinsic toxicity, MTT survival; assay type: cell-based; conditions: Homo sapiens, DU-145, 48 hours, ± standard error
Description: as §1, §2

Question: Which “Effect on paclitaxel sensitivity” value (DU145TXR [1]) does the source give for COC(=O)c1ccc(C(c2c(O)oc3ccccc3c2=O)c2c(O)oc3ccccc3c2=O)cc1 [SMU-19, methyl 4-[bis(2-hydroxy-4-oxochromen-3-yl)methyl]benzoate] here?
Answer: no effect

Question: And the “Effect on cell viability with paclitaxel” value (DU145TXR [2])?
Answer: no effect on cell viability

Question: What about the “Effect on SL-ANP binding” value [3] of the same compound?
Answer: reduce the number of binding sites

Question: Which “Fold vs PTX” value (DU145TXR [4]; 3 μM inhibitor, fold improvement of PTX sensitivity vs PTX alone) does the source give for Cc1cc(C)c(-c2cc(NC(=O)CSc3nnc4c(n3)[nH]c3ccccc34)n(-c3ccccc3)n2)cc1C [SMU29-541, 2-((5H-[1,2,4]triazino[5,6-b]indol-3-yl)thio)-N-(1-phenyl-3-(2,4,5-trimethylphenyl)-1H-pyrazol-5-yl)acetamide] here?
Answer: 5 Fold

Question: What about the “Fold vs PTX ÷ 29” value (DU145TXR [4]; 5 μM inhibitor) of the same compound?
Answer: 9.2 Fold

Question: And the “Fold vs PTX” value (DU145TXR [4]; 5 μM inhibitor, vs PTX alone)?
Answer: 101 Fold

Question: What about the “Fold vs PTX ÷ 29” value (DU145TXR [4]; 7 μM inhibitor) of the same compound?
Answer: 3.4 Fold

Question: What about the “Fold vs PTX” value (DU145TXR [4]; 7 μM inhibitor, vs PTX alone) of the same compound?
Answer: 125 Fold

Question: And the “Fold vs PTX ÷ 29” value (DU145TXR [4]; 10 μM inhibitor)?
Answer: 3.4 Fold

Question: And the “Fold vs PTX” value (DU145TXR [4]; 10 μM inhibitor, vs PTX alone)?
Answer: 125 Fold

Question: What about the “Stimulated ATPase (% of DMSO)” value ([5]; in the presence of verapamil) of the same compound?
Answer: 68 ± 7 % of DMSO

Question: And the “Basal ATPase (% of DMSO)” value ([5]; without added transport substrate)?
Answer: 101 ± 12 % of DMSO

Question: What about the “Maximum ATP binding mol SL-ANP bound/mol P-gp” value [6] of the same compound?
Answer: 1.8 ± 0.1 mol SL-ANP bound/mol P-gp

Question: And the “Basal ATPase (% of DMSO)” value ([7]; basal)?
Answer: 87 ± 9 % of DMSO

Question: What about the “Stimulated ATPase (% of DMSO)” value ([7]; stimulated) of the same compound?
Answer: 66 ± 6 % of DMSO

Question: What about the “Toxicity in cell viability assays” value (DU145TXR [8]; in the absence of chemotherapeutic) of the same compound?
Answer: some toxicity

Question: And the “Cellular calcein accumulation relative to parental compound 29” value ([9]; after 6-hour pre-incubation)?
Answer: exceeded 29 significantly

Question: What about the “Cellular calcein accumulation relative to parental compound 29” value ([9]; no preincubation) of the same compound?
Answer: performed relatively equally to 29

Question: Which IC50 (DU145) does the source give for COc1ccc(CCN(C)CCCC(C#N)(c2ccc(OC)c(OC)c2)C(C)C)cc1OC (centres unmarked) [Verapamil, verapamil, reference compound] here?
Answer: 74.5 ± 0.04 µM

Question: And the IC50 (DU145TXR [8]; Homo sapiens, intrinsic toxicity, 48 hours, MTT, ± standard error)?
Answer: 147.5 ± 0.1 µM
